Assay results from PubChem BioAssay (NCI).
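The compound was tested at five concentrations on cells cultured in 96-well plates, with a 48-hour exposure period. GI50 = concentration required for 50% inhibition of growth. The concentration for full growth arrest is given as TGI.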

Assays:
Test in all cases: growth of human tumour cells (NCI), 48 h
786-0 renal = test system: 786-0 renal
A549 NSCLC = test system: A549 NSCLC
DU-145 prostate = test system: DU-145 prostate
MCF7 breast = test system: MCF7 breast
MDA-MB-435 = test system: MDA-MB-435
NCI-H226 lung = test system: NCI-H226 lung
OVCAR-3 ovarian = test system: OVCAR-3 ovarian
OVCAR-5 ovarian = test system: OVCAR-5 ovarian
SF-539 CNS = test system: SF-539 CNS
SNB-75 CNS = test system: SNB-75 CNS

| SMILES | TGI (786-0 renal) | TGI (A549 NSCLC) | TGI (DU-145 prostate) | TGI (MCF7 breast) | TGI (MDA-MB-435) | TGI (NCI-H226 lung) | TGI (OVCAR-3 ovarian) | TGI (OVCAR-5 ovarian) | TGI (SF-539 CNS) | TGI (SNB-75 CNS) | GI50 (A549 NSCLC) | GI50 (DU-145 prostate) | GI50 (MCF7 breast) | GI50 (MDA-MB-435) | GI50 (NCI-H226 lung) | GI50 (OVCAR-3 ovarian) | GI50 (OVCAR-5 ovarian) | GI50 (SF-539 CNS) | GI50 (SNB-75 CNS) |
| --- | --- | --- | --- | --- | --- | --- | --- | --- | --- | --- | --- | --- | --- | --- | --- | --- | --- | --- | --- |
| Cc1ncc(CO)c(CN)c1O | > 100 µM | > 100 µM | > 100 µM | > 100 µM | > 100 µM | > 100 µM | > 100 µM | > 100 µM | > 100 µM | – | – | – | – | – | – | – | – | – | – |
| CN(C)CCNC(=O)c1cccc2nc3c4ccccc4c4ccccc4c3nc12 | – | 12.2 µM | 3.2 µM | 3.47 µM | 3.42 µM | 28.1 µM | 7 µM | 14.2 µM | 3.18 µM | 8.85 µM | – | – | – | – | – | – | – | – | – |
| COc1cc2c(cc1OC)C(Cl)C(c1ccc(Cl)cc1)=C2Cl (stereo unspecified) | – | – | – | – | – | 50.6 µM | 30.1 µM | – | 31.2 µM | 36.2 µM | – | – | – | – | – | – | – | – | – |
| CCN(CC)Cc1ccc2cccnc2c1O | – | 32.9 µM | > 100 µM | > 100 µM | > 100 µM | > 100 µM | 11.4 µM | 45.5 µM | 20.7 µM | 12.7 µM | – | – | – | – | – | – | – | – | – |
| C[C@@H]1CC[C@H]2C(COC/C=C/COCC3=C(C(F)(F)F)O[C@@H]4O[C@@]5(C)CC[C@H]6[C@H](C)CC[C@@H]3[C@@]46OO5)=C(C(F)(F)F)O[C@@H]3O[C@@]4(C)CC[C@@H]1[C@]32OO4 | > 100 µM | > 50.1 µM | > 100 µM | > 58.3 µM | – | 0.191 µM | 0.336 µM | > 100 µM | > 21.4 µM | > 100 µM | < 0.0138 µM | 0.531 µM | 0.028 µM | < 0.012 µM | 0.0199 µM | < 0.0114 µM | 0.0175 µM | < 0.0242 µM | 12.7 µM |
| O=C(c1cc(Br)ccc1O)c1cc(Br)ccc1O | 30.6 µM | 32 µM | 29.2 µM | 31.3 µM | 29.3 µM | 42 µM | 29.2 µM | 33.3 µM | 38.2 µM | 29.9 µM | – | – | – | – | – | – | – | – | – |
| Cn1cnc([N+](=O)[O-])c1SCC(=O)O | > 100 µM | > 100 µM | > 100 µM | > 100 µM | > 100 µM | > 100 µM | > 100 µM | > 100 µM | – | > 100 µM | – | – | – | – | – | – | – | – | – |
| Oc1cc(O)cc(/C=C/c2ccc(O)c(O)c2)c1 | – | 53.4 µM | – | > 56.1 µM | – | 42.1 µM | > 100 µM | 20.7 µM | 22.9 µM | 51.7 µM | – | – | – | – | – | – | – | – | – |
| NCS(=O)(=O)O | > 100 µM | > 100 µM | > 100 µM | > 100 µM | > 100 µM | > 100 µM | > 100 µM | > 100 µM | 52.6 µM | > 100 µM | – | – | – | – | – | – | – | – | – |
| COc1cc2ccc1-c1cc(ccc1O)CC1c3cc4c(cc3CCN1C)Oc1c(OC)cc3c(c1O4)C(C2)N(C)CC3 (stereo unspecified) | 3.15 µM | 3.41 µM | – | – | – | 4.08 µM | 3.93 µM | 8.86 µM | 3.27 µM | 3.52 µM | – | – | – | – | – | – | – | – | – |
| O=C(CC1(O)C(=O)Nc2ccc(Br)cc21)c1ccc(C(=O)NCC2CCC3(CC2)OOC2(CCCCC2)OO3)cc1 (stereo unspecified) | – | > 100 µM | 39.6 µM | 26.5 µM | – | 30 µM | 10.4 µM | 63.8 µM | 17.6 µM | – | 4.3 µM | 8.77 µM | 3.05 µM | – | 4.7 µM | 2.13 µM | 13.8 µM | 3.9 µM | – |
| COc1cnc2c(c1)C(=O)c1c-2n(CCCN2CCNCC2)c(=O)c2cc(Cl)ccc12 | – | – | 1.2 µM | – | 2.59 µM | 4.91 µM | 2.83 µM | 3.31 µM | 2.63 µM | 1.69 µM | – | 0.242 µM | – | 1.25 µM | 1.04 µM | 1.43 µM | 1.74 µM | 1.33 µM | 0.291 µM |
| c1ccc2c[n+](CCCCCCCCCC[n+]3ccc4ccccc4c3)ccc2c1 | > 10 µM | > 10 µM | > 10 µM | > 10 µM | > 10 µM | > 10 µM | > 10 µM | > 10 µM | > 10 µM | > 10 µM | – | – | – | – | – | – | – | – | – |
| O=C1c2ccccc2C(=O)c2c(NCCNC(=O)C3CCCN3)ccc(NCCNC(=O)C3CCCN3)c21 (stereo unspecified) | 2.09 µM | > 100 µM | > 100 µM | > 100 µM | > 100 µM | > 100 µM | > 100 µM | > 100 µM | > 100 µM | > 100 µM | – | – | – | – | – | – | – | – | – |
| Cc1ccc(C)c(/C(=N\N=C(N)N)C2CC2)c1 | > 100 µM | > 100 µM | > 100 µM | > 100 µM | 63.9 µM | > 100 µM | > 100 µM | > 100 µM | 75 µM | > 100 µM | – | – | – | – | – | – | – | – | – |
| CCOC(=O)c1c2c(c(O)c3ccccc3c(O)n(-c3ccc(C)cc3)c1C)C(=O)C=CC2=O | 33.5 µM | > 100 µM | 91 µM | 55.7 µM | 35.7 µM | > 100 µM | 35.2 µM | > 100 µM | 53.9 µM | 43.6 µM | – | – | – | – | – | – | – | – | – |
| O=C(CSCC(=O)N/N=C/c1cccc(OCc2ccccc2)c1)N/N=C/c1cccc(OCc2ccccc2)c1 | > 100 µM | > 100 µM | > 100 µM | > 100 µM | > 100 µM | > 100 µM | > 100 µM | > 100 µM | > 100 µM | > 100 µM | – | – | – | – | – | – | – | – | – |
| Cc1c2ccnc(-c3ccccc3)c2cc2c1[nH]c1ccccc12 | – | 10.3 µM | – | 8.59 µM | – | 5.23 µM | 8.99 µM | 13.8 µM | 7 µM | 8.16 µM | – | – | – | – | – | – | – | – | – |
| CC(C)CNc1nc(N)[nH]c(=O)c1NC=O | > 100 µM | > 100 µM | > 100 µM | > 100 µM | > 100 µM | > 100 µM | > 100 µM | > 100 µM | > 100 µM | > 100 µM | – | – | – | – | – | – | – | – | – |
| N=C(N)c1ccc(-c2ccc(-c3ccc(Cl)cn3)s2)cc1 | – | – | 3.34 µM | – | 3.02 µM | 12 µM | – | 3.04 µM | 3.01 µM | – | – | 1.78 µM | – | 1.65 µM | 2.76 µM | – | 1.58 µM | 1.63 µM | – |
| CN(C)c1ccc2nc3c(C(=O)O)cc(=O)c(O)c-3oc2c1 | 82.7 µM | > 100 µM | > 100 µM | 56.5 µM | 54.9 µM | > 100 µM | 60.8 µM | > 100 µM | 69.3 µM | 60 µM | – | – | – | – | – | – | – | – | – |
| CN(C)c1ccc(C2CC(=O)C(C#N)=C(c3ccccc3)NN2C)cc1 (stereo unspecified) | – | > 100 µM | – | – | – | > 100 µM | – | > 100 µM | – | 7.59 µM | – | – | – | – | – | – | – | – | – |
